In patent publication US20250177408A1, “INHIBITOR OF INTERACTION BETWEEN YAP/TAZ AND TEAD, PREPARATION THEREOF, PHARMACEUTICAL COMPOSITION THEREOF AND USE THEREOF” (ETERN BIOPHARMA (SHANGHAI) CO., LTD., priority 2022, published 2025):
Like-named read-outs stand apart in the source and are kept apart here.

Tests used:
MSTO-211H cells = assay: Cell proliferation inhibition experiment (CellTiter-Glo); type: cell-based; conditions: 96 hours, read-out: Inhibitory activity of each compound on the proliferation of MSTO-211H cells (grades of IC50 values)
Outline: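 MSTO-211H cells (1500/well, RPMI1640 + 10% FBS) were plated overnight at 37° C, 5% CO2, then exposed in duplicate to 9 three-fold compound dilutions (DMSO ≤0.5% final) for 96 hours. Viability was read as CellTiter-Glo luminescence after 10 min at room temperature. IC50 was derived from inhibition of the CTG signal.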

YAP/TEAD reporter gene = YAP/TEAD reporter gene inhibition experiment in SF268-YAP-Luc cells; type: cell-based; conditions: SF268-YAP-Luc cells, 24 hours, Renila luciferase signal corrected for cell viability; read-out: Activity of each compound in inhibiting the expression of YAP/TEAD reporter gene (grades of IC50 values)
Method: In this example, the inhibition of the compound on the target was detected by the signal of the reporter gene in the stable cell line SF268-YAP-Luc containing the YAP/TEAD reporter gene.
A sequence containing 6 tandem YAP/TEAD binding sites and a basal transcription promoter was constructed on the vector pGL4.76 of Promega Company. The constructed reporter gene vector was transfected into SF268 cells (NCI DCTD tumor/cell line repository) and screened with 0.5 μg/mL hygromycin to obtain SF268-YAP-Luc stable strain.
SF268-YAP-Luc cells were seeded into a 96-well plate at a density of 3000 cells per well with a volume of 100 μL per well (cell culture medium composition: RPMI1640 (Gibco-A10491-01)+10% FBS (Gibco-10099-141C)+1% penicillin-streptomycin (5,000 U/mL, Gibco-15070-063)), and the cells were incubated overnight in a 37° C., 5% carbon dioxide incubator.
On the next day, the compounds to be tested were 3-fold diluted, and a total of 8 concentration gradients were set up; a certain volume of DMSO or the compounds to be tested was added to each well, respectively, and 2 replicates were set up for each concentration, and the final concentration of DMSO was controlled to be no higher than 0.5%. The cells were incubated for 24 hours in a 37° C., 5% carbon dioxide incubator. Two identical parallel plates were set up for cell seeding and compound treatment.
Renila-Glo luciferase assay system kit (Promega, E2720) was used to detect the reporter gene signals of the control group and treatment group. 70 μL of Renila-Glo was added to each well, mixed well, and incubated at room temperature for 10 minutes. The signal was read using EnVision® Multilabel Plate Reader (Perkin Elmer).
Cell viability was detected in the control group and treatment group using CellTiter-Glo Luminescent Cell Viability Assay kit (Promega, G7570). 50 μL of CellTiter-Glo was added to each well, mixed well, and incubated at room temperature for 10 minutes. The signal was read using En Vision® Multilabel Plate Reader (Perkin Elmer).
The signal of Renila luciferase after correcting for cell viability was analyzed, and the inhibition rate of the compound on the reporter gene was calculated. The inhibition percentage (%) is calculated by the following formula: […]
Using Graphpad Prism software, the IC50 values for the compounds' inhibitory activity against Renila luciferase signaling were calculated.

[1] = biological target: YAP-TEAD protein interaction (His-TEAD1 (209-426) protein, Bio-YAP peptide (60-100)) (Homo sapiens, UniProt P28347); assay: YAP-TEAD protein interaction HTRF experiment; type: binding; conditions: His-TEAD1 (209-426) 10 nM, Bio-YAP peptide 50 nM, read-out: Activity of each compound in blocking YAP-TEAD protein interaction (grades of IC50 values)
Outline: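 His-TEAD1 (209-426) at 10 nM final was preincubated 20 min at RT with compounds (10-point 3-fold dilutions, duplicates, 1% DMSO), then Bio-YAP peptide, 10 min. Anti-His-Eu cryptate/streptavidin-XL665 added for 1 h at RT; HTRF read at ex 320 nm, Em665/Em620 ratio ×10000, IC50 from % inhibition.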

Sequence of YAP-TEAD protein interaction (His-TEAD1 (209-426) protein, Bio-YAP peptide (60-100)) (P28347 209-426): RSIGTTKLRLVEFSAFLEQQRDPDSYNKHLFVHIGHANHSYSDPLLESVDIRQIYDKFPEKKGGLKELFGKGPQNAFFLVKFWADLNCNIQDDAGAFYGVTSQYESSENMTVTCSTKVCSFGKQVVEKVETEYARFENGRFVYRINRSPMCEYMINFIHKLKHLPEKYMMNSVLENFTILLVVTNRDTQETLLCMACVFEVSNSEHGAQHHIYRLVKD

Row | IC50 [1] [µM] | Compound | IC50 (MSTO-211H cells; Homo sapiens) [µM] | IC50 (YAP/TEAD reporter gene) [µM] | IC50 (MSTO-211H cells) [µM]
1 | < 0.05 | NC(=O)c1cc2c(c(F)c1-c1c(Cl)c(F)cc3c1C[C@](c1ccccc1)([C@@H]1CCCN1)O3)OCC(=O)N2 (atropisomer, axis not shown) [Compound I-23, (S)-7-((S)-5-Chloro-6-fluoro-2-phenyl-2-((S)-pyrrolidin-2-yl)-2,3-dihydrobenzofuran-4-yl)-8-fluoro-3-oxo-3,4-dihydro-2H-benzo[b][1,4]oxazine-6-carboxamide] | < 0.2 | 0.05 to 0.5 | –
2 | < 0.05 | CN1C(=O)COc2c1cc(C(N)=O)c(-c1c(Cl)c(F)cc3c1C[C@](c1ccccc1)([C@@H]1CCCN1)O3)c2F (atropisomer, axis not shown) [Compound I-25, (S)-7-((S)-5-Chloro-6-fluoro-2-phenyl-2-((S)-pyrrolidin-2-yl)-2,3-dihydrobenzofuran-4-yl)-8-fluoro-4-methyl-3-oxo-3,4-dihydro-2H-benzo[b][1,4]oxazine-6-carboxamide] | 0.2 to 0.5 | 0.05 to 0.5 | –
3 | < 0.05 | CN1CCOc2c1cc(C(N)=O)c(-c1c(Cl)c(F)cc3c1C[C@](c1ccccc1)([C@@H]1CCCN1)O3)c2F (atropisomer, axis not shown) [Compound I-24, (S)-7-((S)-5-Chloro-6-fluoro-2-phenyl-2-((S)-pyrrolidin-2-yl)-2,3-dihydrobenzofuran-4-yl)-8-fluoro-4-methyl-3,4-dihydro-2H-benzo[b][1,4]oxazine-6-carboxamide] | < 0.2 | < 0.05 | –
4 | < 0.05 | NC(=O)c1cc2c(c(F)c1-c1c(Cl)c(F)cc3c1CC(c1ccccc1)(C1CCCN1)O3)OCCN2 [Compound I-19, (S)-7-((S)-5-Chloro-6-fluoro-2-phenyl-2-((S)-pyrrolidin-2-yl)-2,3-dihydrobenzofuran-4-yl)-8-fluoro-3,4-dihydro-2H-benzo[b][1,4]oxazine-6-carboxamide] | – | < 0.05 | –
5 | < 0.05 | Cn1cc2c(n1)COc1c-2cc(C(N)=O)c(-c2c(Cl)c(F)cc3c2C[C@](c2ccccc2)([C@@H]2CCCN2)O3)c1F (atropisomer, axis not shown) [Compound 3, (S)-7-((S)-5-Chloro-6-fluoro-2-phenyl-2-((S)-pyrrolidin-2-yl)-2,3-dihydrobenzofuran-4-yl)-6-fluoro-2-methyl-2,4-dihydrochromeno[3,4-c]pyrazole-8-carboxamide] | < 0.2 | < 0.05 | –
6 | < 0.05 | CC(=O)N1CCOc2c1cc(C(N)=O)c(-c1c(Cl)c(F)cc3c1C[C@](c1ccccc1)([C@@H]1CCCN1)O3)c2F (atropisomer, axis not shown) [Compound I-27, (S)-4-Acetyl-7-((S)-5-chloro-6-fluoro-2-phenyl-2-((S)-pyrrolidin-2-yl)-2,3-dihydrobenzofuran-4-yl)-8-fluoro-3,4-dihydro-2H-benzo[b][1,4]oxazine-6-carboxamide] | 0.2 to 0.5 | < 0.05 | –
7 | < 0.05 | NC(=O)c1cc2c(c(F)c1-c1c(Cl)c(F)cc3c1C[C@](c1ccccc1)([C@@H]1CCCN1)O3)OCCO2 (atropisomer, axis not shown) [Compound 1, 7-((2S,4S)-5-Chloro-6-fluoro-2-phenyl-2-((S)-pyrrolidin-2-yl)-2,3-dihydrobenzofuran-4-yl)-8-fluoro-2,3-dihydrobenzo[b][1,4]dioxine-6-carboxamide] | < 0.2 | < 0.05 | –
8 | < 0.05 | Cn1ncc2c(F)c(-c3c(Cl)c(F)cc4c3C[C@](c3ccccc3)([C@@H]3CCCN3)O4)c(C(N)=O)cc21 (atropisomer, axis not shown) [Compound I-28, (S)-5-((S)-5-Chloro-6-fluoro-2-phenyl-2-((S)-pyrrolidin-2-yl)-2,3-dihydrobenzofuran-4-yl)-4-fluoro-1-methyl-1H-indazole-6-carboxamide] | < 0.2 | – | –

Further lines, the compound ahead of its results:

Row | Compound | IC50 [1] [µM] | IC50 (MSTO-211H cells; Homo sapiens) [µM] | IC50 (YAP/TEAD reporter gene) [µM] | IC50 (MSTO-211H cells) [µM]
9 | CNC[C@@]1(c2ccccc2)Cc2c(cc(F)c(Cl)c2-c2c(C(N)=O)cn3ccnc3c2F)O1 (atropisomer, axis not shown) [Compound I-1] | < 0.05 | < 0.2 | < 0.05 | –
10 | Cn1cc2c(n1)Oc1c(cc(C(N)=O)c(-c3c(Cl)c(F)cc4c3C[C@](c3ccccc3)([C@@H]3CCCN3)O4)c1F)O2 (atropisomer, axis not shown) [Compound 8, (S)-7-((S)-5-Chloro-6-fluoro-2-phenyl-2-((S)-pyrrolidin-2-yl)-2,3-dihydrobenzofuran-4-yl)-8-fluoro-2-methyl-2H-benzo[5,6][1,4]dioxoino[2,3-c]pyrazole-6-carboxamide] | < 0.05 | < 0.2 | < 0.05 | –
11 | NC(=O)c1cc2c(c(F)c1-c1c(Cl)c(F)cc3c1C[C@](c1ccccc1)([C@@H]1CCCN1)O3)Oc1nc(CO)cnc1O2 (atropisomer, axis not shown) [Compound 101, (S)-8-((S)-5-Chloro-6-fluoro-2-phenyl-2-((S)-pyrrolidin-2-yl)-2,3-dihydrobenzofuran-4-yl)-9-fluoro-2-(hydroxymethyl)benzo[5,6] [1,4]dioxo [2,3-b]pyrazine-7-carboxamide] | < 0.05 | < 0.2 | – | –
12 | Cn1cnc2c(c1=O)Oc1c(cc(C(N)=O)c(-c3c(Cl)c(F)cc4c3CC(c3ccccc3)(C3CCCN3)O4)c1F)O2 [Compound 126, (S)-7-((S)-5-Chloro-6-fluoro-2-phenyl-2-((S)-pyrrolidin-2-yl)-2,3-dihydrobenzofuran-4-yl)-6-fluoro-3-methyl-4-oxo-3,4,7,8-tetrahydrobenzo[5,6][1,4]dioxo[2,3-d]pyrimidine-8-carboxamide] | < 0.05 | < 0.2 | – | –
13 | CNC[C@@]1(c2ccccc2)Cc2c(cc(F)c(Cl)c2-c2c(C(N)=O)cn3cc(C)nc3c2F)O1 (atropisomer, axis not shown) [Compound I-16, (S)-7-((S)-5-Chloro-6-fluoro-2-((methylamino)methyl)-2-phenyl-2,3-dihydrobenzofuran-4-yl)-8-fluoro-2-methylimidazo[1,2-a]pyridine-6-carboxamide] | < 0.05 | < 0.2 | – | –
14 | NC(=O)c1cc2c(c(F)c1-c1c(Cl)c(F)cc3c1C[C@](c1ccccc1)([C@@H]1CCCN1)O3)OCc1nccnc1-2 (atropisomer, axis not shown) [Compound 6, (S)-8-((S)-5-Chloro-6-fluoro-2-phenyl-2-((S)-pyrrolidin-2-yl)-2,3-dihydrobenzofuran-4-yl)-7-fluoro-5H-chromeno[3,4-b]pyrazine-9-carboxamide] | < 0.05 | < 0.2 | – | –
15 | NC(=O)c1cc2c(c(F)c1-c1c(Cl)c(F)cc3c1C[C@](c1ccccc1)([C@@H]1CCCN1)O3)Oc1nnccc1O2 [Compound 71, (S)-8-((S)-5-Chloro-6-fluoro-2-phenyl-2-((S)-pyrrolidin-2-yl)-2,3-dihydrobenzofuran-4-yl)-9-fluorobenzo[5,6][1,4]dioxo[2,3-c]pyridazine-7-carboxamide] | < 0.05 | – | – | 0.2 to 0.5
16 | CCn1ncc2c(c1=O)Oc1cc(C(N)=O)c(-c3c(Cl)c(F)cc4c3C[C@](c3ccccc3)([C@@H]3CCCN3)O4)c(F)c1O2 (atropisomer, axis not shown) [Compound 110, (S)-8-((S)-5-Chloro-6-fluoro-2-phenyl-2-((S)-pyrrolidin-2-yl)-2,3-dihydrobenzofuran-4-yl)-3-ethyl-9-fluoro-4-oxo-3,4-dihydrobenzo[5,6][1,4]dioxo [2,3-d]pyridazine-7-carboxamide] | < 0.05 | 0.2 to 0.5 | – | –
